Broadly, the IC50 is the concentration needed to halve the response being measured. The low end stands for greater potency in that assay, the high end for weaker potency in that assay.

From BindingDB's records for patent US20250074919 (Accro Bioscience (HK), 2025) come the findings set out here.

The target of the test is T1, Interleukin-1 receptor-associated kinase 4 (Homo sapiens, UniProt Q9NWZ3).
T1 sequence (Q9NWZ3 whole entry): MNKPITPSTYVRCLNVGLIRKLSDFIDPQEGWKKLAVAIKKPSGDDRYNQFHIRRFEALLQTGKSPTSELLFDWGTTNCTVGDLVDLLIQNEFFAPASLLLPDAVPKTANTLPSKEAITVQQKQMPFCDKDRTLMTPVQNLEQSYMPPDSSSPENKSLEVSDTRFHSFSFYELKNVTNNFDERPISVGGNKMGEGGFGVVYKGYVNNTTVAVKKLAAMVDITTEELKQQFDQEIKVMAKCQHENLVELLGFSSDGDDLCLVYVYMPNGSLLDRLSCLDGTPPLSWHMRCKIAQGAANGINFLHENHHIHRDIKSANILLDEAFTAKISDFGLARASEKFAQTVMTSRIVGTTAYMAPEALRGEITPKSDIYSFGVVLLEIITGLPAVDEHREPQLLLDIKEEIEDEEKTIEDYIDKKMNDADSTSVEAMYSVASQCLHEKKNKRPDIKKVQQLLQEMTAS
Description: Screening Assay Against IRAK4 with ATP. The method, then:
Then prepare compounds for testing: Dilute the compound to 50× of the final desired highest inhibitor concentration in reaction by 100% DMSO. […] Transfer 10 μL of the compound from the source plate to a new 96-well plate (intermediate plate) and add 90 μL of Ix kinase buffer. Shake the mixture on the intermediate plate for 10 min. Transfer 5 μL of each well from the 96-well intermediate plate to a 384-well plate in duplicates. Add 10 μL of 2.5× enzyme solution to each well of the 384-well assay plate and incubate at room temperature for 10 min. Add 10 μL, of 2.5×FAM-labeled peptide and ATP solution and incubate at 28° C. for a period of time.

Take `Cn1cc(-c2cccc(NC(=O)c3cc4oc(N5CCOCC5)nc4nc3N3CCOCC3)n2)cn1` [US20250074919, Example A2]: half-maximal inhibition (IC50) was put at 45 nM.
